Drawing on US7491704B2, “Compounds for enzyme inhibition” (Proteolix, Inc., priority 2004, dated 2009), this text covers IC50 for one compound.

Test [1] has as its target 20S proteasome chymotrypsin-like activity (CT-L) (Homo sapiens, UniProt P20618+P28074). In words: 20S proteasome chymotrypsin-like (CT-L) activity inhibition. Type of test: biochemical. As for the experimental part:
The enzyme inhibitor analogs and prodrugs disclosed herein are useful in part because they inhibit the action of the 20S proteasome. […] That is, the instant compounds show selectivities for the 20S proteasome over other proteases such as cathepsins, calpains, papain, chymotrypsin, trypsin, tripeptidyl pepsidase II. The selectivities of the enzyme inhibitors for 20S proteasome are such that at concentrations below about 50 μM, the enzyme inhibitors show inhibition of the catalytic activity of the 20S proteasome, while not showing inhibition of the catalytic activity of other proteases such as cathepsins, calpains, papain, chymotrypsin, trypsin, tripeptidyl pepsidase II. In preferred embodiments, the enzyme inhibitors show inhibition of the catalytic activity of the 20S proteasome at concentrations below about 10 μM, while not showing inhibition of the catalytic activity of other proteases at these concentrations. […]
The chymotrypsin-like activity of 20S proteasome is characterized by cleavage of peptides in the immediate vicinity of large hydrophobic residues. In particular, the chymotrypsin-like activity of Ntn hydrolases can be determined by cleavage of a standard substrate. […]

The target of test [2] is T1, proteasome chymotrypsin-like activity (CT-L), cell-based (Homo sapiens, UniProt P28074).
T1 construct: endogenous in cells
T1 sequence (P28074 60-263): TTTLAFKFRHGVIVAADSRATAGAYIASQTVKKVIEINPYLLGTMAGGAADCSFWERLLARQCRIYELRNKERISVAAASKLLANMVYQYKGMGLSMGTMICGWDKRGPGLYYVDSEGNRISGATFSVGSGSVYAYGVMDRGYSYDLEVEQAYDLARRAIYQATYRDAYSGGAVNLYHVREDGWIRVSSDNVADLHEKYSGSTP
In words: Cell-based CT-L activity inhibition.

The term IC50 denotes the concentration needed to halve the response being measured. Read a low IC50 as inhibition by little substance.

For the compound `CC(C)CC(NC(=O)C(CCc1ccccc1)NC(=O)CN(C)C)C(=O)NC(Cc1ccccc1)C(=O)NC(CC(C)C)C(=O)C1(C)CO1` (centres unmarked) [compound 3], the concentration for half-maximal inhibition (IC50) in test [1] and in test [2] was less than 100 nM in each case.
